Paper PMC10046369, “Low-Affinity/High-Selectivity Dopamine Transport Inhibition Sufficient to Rescue Cognitive Functions in the Aging Rat” (Biomolecules, 2023)

Assays:
Test in all cases: biochemical
Design in all cases: KINOMEscan competition binding panel, per cent of control
Conditions in all cases: read-out: %Ctrl @ 2800nM
PIKFYVE = PIKFYVE (Homo sapiens, UniProt Q9Y2I7)
Outline: (§1)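 Values are expressed as percent of control, calculated as ((test − positive control)/(negative control − positive control)) × 100, so lower numbers mean stronger hits. Binding was measured by KINOMEscan competition assay in a 450-kinase human panel including disease mutants, using the contractor's validated protocol.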

MYLK2 = MYLK2 (Homo sapiens, UniProt Q9H1R3)
Outline: as §1

FLT3(D835H) = FLT3(D835H) (Homo sapiens, UniProt P36888, D835H)
Outline: as §1

AKT1 = AKT1 (Homo sapiens, UniProt P31749)
Outline: as §1

PIM2 = PIM2 (Homo sapiens, UniProt Q9P1W9)
Outline: as §1

SNRK = SNRK (Homo sapiens, UniProt Q9NRH2)
Outline: as §1

DCAMKL2 = molecular target: T1, DCAMKL2 (Homo sapiens, UniProt Q8N568)
T1 construct: gene DCLK2
Outline: as §1

RIPK2 = RIPK2 (Homo sapiens, UniProt O43353)
Outline: as §1

CDKL3 = CDKL3 (Homo sapiens, UniProt Q8IVW4)
Outline: as §1

RIPK4 = RIPK4 (Homo sapiens, UniProt P57078)
Outline: as §1

AURKA = AURKA (Homo sapiens, UniProt O14965)
Outline: as §1

CHEK2 = CHEK2 (Homo sapiens, UniProt O96017)
Outline: as §1

p38-gamma = molecular target: T2, p38-gamma (Homo sapiens, UniProt P53778)
T2 construct: gene MAPK12
Outline: as §1

CDK4-cyclinD3 = molecular target: T3, CDK4-cyclinD3 (Homo sapiens, UniProt P11802)
T3 construct: cyclinD3
Outline: as §1

CSNK1G2 = CSNK1G2 (Homo sapiens, UniProt P78368)
Outline: as §1

PIK3CD = PIK3CD (Homo sapiens, UniProt O00329)
Outline: as §1

NEK9 = NEK9 (Homo sapiens, UniProt Q8TD19)
Outline: as §1

PRKCE = PRKCE (Homo sapiens, UniProt Q02156)
Outline: as §1

ERK5 = molecular target: T4, ERK5 (Homo sapiens, UniProt Q13164)
T4 construct: gene MAPK7
Outline: as §1

TAOK2 = TAOK2 (Homo sapiens, UniProt Q9UL54)
Outline: as §1

CLK1 = CLK1 (Homo sapiens, UniProt P49759)
Outline: as §1

IGF1R = IGF1R (Homo sapiens, UniProt P08069)
Outline: as §1

FLT3(N841I) = FLT3(N841I) (Homo sapiens, UniProt P36888, N841I)
Outline: as §1

CDK5 = CDK5 (Homo sapiens, UniProt Q00535)
Outline: as §1

PRKX = PRKX (Homo sapiens, UniProt P51817)
Outline: as §1

ALK(C1156Y) = ALK(C1156Y) (Homo sapiens, UniProt Q9UM73, C1156Y)
Outline: as §1

LATS1 = LATS1 (Homo sapiens, UniProt O95835)
Outline: as §1

Sequence of PRKX (P51817 whole entry): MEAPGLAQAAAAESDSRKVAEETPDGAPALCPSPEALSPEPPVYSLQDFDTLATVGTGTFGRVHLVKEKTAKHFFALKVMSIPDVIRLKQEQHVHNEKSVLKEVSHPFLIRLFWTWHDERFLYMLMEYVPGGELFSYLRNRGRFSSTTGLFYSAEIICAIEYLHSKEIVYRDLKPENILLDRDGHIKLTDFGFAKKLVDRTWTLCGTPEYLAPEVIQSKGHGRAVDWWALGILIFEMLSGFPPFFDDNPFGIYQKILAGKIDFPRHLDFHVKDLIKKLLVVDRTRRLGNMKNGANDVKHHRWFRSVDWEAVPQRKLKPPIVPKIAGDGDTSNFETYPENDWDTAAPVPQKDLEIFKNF
Sequence of CLK1 (P49759 whole entry): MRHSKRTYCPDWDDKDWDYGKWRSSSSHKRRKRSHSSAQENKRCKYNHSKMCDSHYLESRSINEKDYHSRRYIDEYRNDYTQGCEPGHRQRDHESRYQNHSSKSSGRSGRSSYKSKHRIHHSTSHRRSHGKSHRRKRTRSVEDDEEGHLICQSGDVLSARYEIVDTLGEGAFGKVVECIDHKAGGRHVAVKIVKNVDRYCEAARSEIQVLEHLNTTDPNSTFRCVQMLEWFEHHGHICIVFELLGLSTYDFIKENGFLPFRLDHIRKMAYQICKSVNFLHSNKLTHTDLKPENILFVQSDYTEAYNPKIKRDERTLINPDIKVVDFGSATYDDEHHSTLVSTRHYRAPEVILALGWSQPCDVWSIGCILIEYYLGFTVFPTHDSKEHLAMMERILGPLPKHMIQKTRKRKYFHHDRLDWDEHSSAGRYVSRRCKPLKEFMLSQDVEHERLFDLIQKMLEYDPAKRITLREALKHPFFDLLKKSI
Sequence of NEK9 (Q8TD19 whole entry): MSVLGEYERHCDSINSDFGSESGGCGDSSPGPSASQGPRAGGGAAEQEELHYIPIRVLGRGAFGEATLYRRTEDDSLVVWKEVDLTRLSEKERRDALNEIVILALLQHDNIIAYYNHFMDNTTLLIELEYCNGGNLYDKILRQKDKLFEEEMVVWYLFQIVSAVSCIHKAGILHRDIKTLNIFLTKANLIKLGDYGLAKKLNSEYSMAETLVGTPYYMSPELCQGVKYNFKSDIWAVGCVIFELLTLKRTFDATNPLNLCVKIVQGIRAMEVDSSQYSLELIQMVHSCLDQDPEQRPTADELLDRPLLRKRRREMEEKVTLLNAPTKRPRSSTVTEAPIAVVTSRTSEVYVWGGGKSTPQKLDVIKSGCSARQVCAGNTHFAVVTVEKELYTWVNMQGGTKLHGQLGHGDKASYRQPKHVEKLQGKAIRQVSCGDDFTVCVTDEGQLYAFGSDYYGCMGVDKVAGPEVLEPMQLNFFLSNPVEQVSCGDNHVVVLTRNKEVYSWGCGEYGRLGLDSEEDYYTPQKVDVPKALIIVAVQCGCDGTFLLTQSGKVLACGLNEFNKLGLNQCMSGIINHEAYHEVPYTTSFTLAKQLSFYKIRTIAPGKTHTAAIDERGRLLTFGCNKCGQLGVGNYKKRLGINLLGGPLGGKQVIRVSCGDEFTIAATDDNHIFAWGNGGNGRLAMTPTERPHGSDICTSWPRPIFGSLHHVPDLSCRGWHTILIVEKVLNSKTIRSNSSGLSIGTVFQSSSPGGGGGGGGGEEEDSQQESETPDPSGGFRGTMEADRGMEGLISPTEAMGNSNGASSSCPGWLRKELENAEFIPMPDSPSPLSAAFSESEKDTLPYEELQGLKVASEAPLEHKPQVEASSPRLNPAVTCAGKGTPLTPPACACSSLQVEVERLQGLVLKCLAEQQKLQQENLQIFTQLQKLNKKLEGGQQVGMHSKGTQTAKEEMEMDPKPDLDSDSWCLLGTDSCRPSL
Sequence of CDK5 (Q00535 whole entry): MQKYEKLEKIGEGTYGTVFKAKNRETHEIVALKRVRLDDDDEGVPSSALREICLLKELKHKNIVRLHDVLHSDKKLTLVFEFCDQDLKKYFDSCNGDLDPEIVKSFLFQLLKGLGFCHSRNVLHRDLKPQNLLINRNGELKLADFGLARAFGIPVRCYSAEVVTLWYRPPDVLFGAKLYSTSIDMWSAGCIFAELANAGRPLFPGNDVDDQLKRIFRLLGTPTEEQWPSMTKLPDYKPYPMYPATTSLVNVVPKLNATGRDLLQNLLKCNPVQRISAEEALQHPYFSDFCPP
Sequence of CHEK2 (O96017 whole entry): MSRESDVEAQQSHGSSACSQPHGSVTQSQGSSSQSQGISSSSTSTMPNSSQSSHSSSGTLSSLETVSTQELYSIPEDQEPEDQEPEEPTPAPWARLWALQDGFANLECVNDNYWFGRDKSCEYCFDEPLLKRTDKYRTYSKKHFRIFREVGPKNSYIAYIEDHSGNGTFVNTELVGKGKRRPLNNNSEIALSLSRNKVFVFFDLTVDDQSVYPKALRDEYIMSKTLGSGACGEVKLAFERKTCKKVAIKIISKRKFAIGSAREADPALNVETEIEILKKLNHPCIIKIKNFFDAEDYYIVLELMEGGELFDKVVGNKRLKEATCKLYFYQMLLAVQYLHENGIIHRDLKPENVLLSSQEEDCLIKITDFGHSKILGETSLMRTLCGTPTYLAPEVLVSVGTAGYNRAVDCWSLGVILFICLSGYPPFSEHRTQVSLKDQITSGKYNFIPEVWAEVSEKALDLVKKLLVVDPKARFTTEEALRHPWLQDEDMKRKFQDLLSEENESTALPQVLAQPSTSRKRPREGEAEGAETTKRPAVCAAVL
Sequence of MYLK2 (Q9H1R3 whole entry): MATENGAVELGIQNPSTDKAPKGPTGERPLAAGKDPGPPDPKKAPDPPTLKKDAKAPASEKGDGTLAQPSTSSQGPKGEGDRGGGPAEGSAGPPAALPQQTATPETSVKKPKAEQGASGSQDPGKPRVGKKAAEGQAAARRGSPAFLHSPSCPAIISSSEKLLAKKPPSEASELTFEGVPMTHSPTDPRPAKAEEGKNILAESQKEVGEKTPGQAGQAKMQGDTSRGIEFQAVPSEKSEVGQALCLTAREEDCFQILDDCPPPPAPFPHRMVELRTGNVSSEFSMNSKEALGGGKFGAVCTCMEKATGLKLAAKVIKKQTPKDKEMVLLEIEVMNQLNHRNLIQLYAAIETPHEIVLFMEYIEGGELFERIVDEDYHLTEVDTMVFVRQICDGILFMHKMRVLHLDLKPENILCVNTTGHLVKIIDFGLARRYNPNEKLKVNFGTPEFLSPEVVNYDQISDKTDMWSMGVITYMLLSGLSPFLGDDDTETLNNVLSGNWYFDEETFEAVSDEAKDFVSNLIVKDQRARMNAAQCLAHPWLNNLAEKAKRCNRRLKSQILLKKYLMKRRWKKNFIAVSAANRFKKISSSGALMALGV
Sequence of PIK3CD (O00329 whole entry): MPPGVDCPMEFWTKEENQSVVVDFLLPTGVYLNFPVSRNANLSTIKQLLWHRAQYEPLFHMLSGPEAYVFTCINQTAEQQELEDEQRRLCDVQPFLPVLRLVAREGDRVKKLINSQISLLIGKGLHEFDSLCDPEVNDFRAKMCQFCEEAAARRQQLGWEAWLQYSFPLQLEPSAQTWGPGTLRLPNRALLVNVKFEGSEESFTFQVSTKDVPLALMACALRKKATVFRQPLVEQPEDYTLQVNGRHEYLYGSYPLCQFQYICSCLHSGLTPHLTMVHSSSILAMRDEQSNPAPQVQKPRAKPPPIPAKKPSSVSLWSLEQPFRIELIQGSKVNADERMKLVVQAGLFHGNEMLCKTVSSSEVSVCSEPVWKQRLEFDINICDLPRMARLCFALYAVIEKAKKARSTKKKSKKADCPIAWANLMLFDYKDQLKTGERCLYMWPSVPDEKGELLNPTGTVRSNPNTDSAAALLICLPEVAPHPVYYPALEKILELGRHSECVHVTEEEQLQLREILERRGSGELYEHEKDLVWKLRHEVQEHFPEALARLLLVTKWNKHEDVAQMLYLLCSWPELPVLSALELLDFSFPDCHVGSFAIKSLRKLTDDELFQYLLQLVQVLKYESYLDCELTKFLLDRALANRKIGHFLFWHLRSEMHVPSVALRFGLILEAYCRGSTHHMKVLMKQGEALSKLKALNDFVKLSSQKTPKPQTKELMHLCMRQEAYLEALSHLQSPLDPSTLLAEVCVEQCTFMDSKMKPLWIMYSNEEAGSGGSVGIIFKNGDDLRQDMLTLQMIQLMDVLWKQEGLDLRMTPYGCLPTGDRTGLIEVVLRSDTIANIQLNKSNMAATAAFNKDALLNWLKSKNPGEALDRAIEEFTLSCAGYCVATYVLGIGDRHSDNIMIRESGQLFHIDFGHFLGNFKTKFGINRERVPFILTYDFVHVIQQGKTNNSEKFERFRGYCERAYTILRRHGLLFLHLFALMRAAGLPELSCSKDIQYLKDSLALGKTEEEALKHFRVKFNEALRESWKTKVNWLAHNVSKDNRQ
Sequence of AURKA (O14965 whole entry): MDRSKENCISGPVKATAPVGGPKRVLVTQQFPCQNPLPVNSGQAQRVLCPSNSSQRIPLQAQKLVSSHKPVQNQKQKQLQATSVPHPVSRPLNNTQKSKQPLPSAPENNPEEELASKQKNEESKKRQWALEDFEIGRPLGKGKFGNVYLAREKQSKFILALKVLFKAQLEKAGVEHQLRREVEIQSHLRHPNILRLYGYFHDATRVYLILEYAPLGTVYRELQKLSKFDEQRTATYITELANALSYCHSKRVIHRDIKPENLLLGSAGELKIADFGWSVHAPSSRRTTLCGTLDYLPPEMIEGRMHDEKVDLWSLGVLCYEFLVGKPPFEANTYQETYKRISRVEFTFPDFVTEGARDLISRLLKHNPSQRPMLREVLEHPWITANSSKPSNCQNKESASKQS
Sequence of PIM2 (Q9P1W9 whole entry): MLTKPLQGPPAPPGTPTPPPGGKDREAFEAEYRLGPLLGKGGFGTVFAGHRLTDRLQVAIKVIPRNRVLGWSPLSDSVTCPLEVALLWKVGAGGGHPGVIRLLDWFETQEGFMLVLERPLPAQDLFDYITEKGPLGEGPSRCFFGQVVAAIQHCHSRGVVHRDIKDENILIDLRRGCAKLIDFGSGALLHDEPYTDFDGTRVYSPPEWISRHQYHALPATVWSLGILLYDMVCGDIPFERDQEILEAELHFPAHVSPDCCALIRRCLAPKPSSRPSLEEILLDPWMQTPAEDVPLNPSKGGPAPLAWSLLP

[O-][S@@+](Cc1cncs1)C(c1ccccc1)c1ccccc1 [S-CE-123, (S)-5-((Benzhydrylsulfinyl)Methyl)Thiazole]
remaining binding at 2.8 µM (PIKFYVE): 100% | remaining binding at 2.8 µM (MYLK2): 99% | remaining binding at 2.8 µM (FLT3(D835H)): 58% | remaining binding at 2.8 µM (AKT1): 99% | remaining binding at 2.8 µM (PIM2): 100% | remaining binding at 2.8 µM (SNRK): 98% | remaining binding at 2.8 µM (DCAMKL2): 97% | remaining binding at 2.8 µM (RIPK2): 100% | remaining binding at 2.8 µM (CDKL3): 81% | remaining binding at 2.8 µM (RIPK4): 97% | remaining binding at 2.8 µM (AURKA): 91% | remaining binding at 2.8 µM (CHEK2): 78% | remaining binding at 2.8 µM (p38-gamma): 100% | remaining binding at 2.8 µM (CDK4-cyclinD3): 85% | remaining binding at 2.8 µM (CSNK1G2): 94% | remaining binding at 2.8 µM (PIK3CD): 86% | remaining binding at 2.8 µM (NEK9): 100% | remaining binding at 2.8 µM (PRKCE): 100% | remaining binding at 2.8 µM (ERK5): 91% | remaining binding at 2.8 µM (TAOK2): 100% | remaining binding at 2.8 µM (CLK1): 96% | remaining binding at 2.8 µM (IGF1R): 94% | remaining binding at 2.8 µM (FLT3(N841I)): 91% | remaining binding at 2.8 µM (CDK5): 97% | remaining binding at 2.8 µM (PRKX): 100% | remaining binding at 2.8 µM (ALK(C1156Y)): 100% | remaining binding at 2.8 µM (LATS1): 93%
